Consider one compound from paper PMC3735612, “Functional Identification of Close Proximity Amino Acid Side Chains within the Transmembrane-Spanning Helixes of the P2X2 Receptor” (PLoS ONE, 2013).

Residue numbers refer to the chain shown, from its start.

Common to all, as to experiment: perforated-patch whole-cell voltage clamp, peak ATP-gated current, Hill fit
What all share (type): cell-based

The target of assay [1] is T1, rP2X2R (rP2X2R-WT; rP2X2R-T for the C348T background) (Rattus norvegicus, UniProt P49653, C348T/I328C/V48C).
T1 construct: gene P2rx2; full-length, C-terminal FLAG tag (DYKDDDDK), transiently expressed in HEK293 cells with EGFP; homotrimer; monomer about 62 kDa on SDS-PAGE; all point mutants made on the C348T (rP2X2R-T) background
T1 sequence (P49653 1-472 V48C/I328C/C348T): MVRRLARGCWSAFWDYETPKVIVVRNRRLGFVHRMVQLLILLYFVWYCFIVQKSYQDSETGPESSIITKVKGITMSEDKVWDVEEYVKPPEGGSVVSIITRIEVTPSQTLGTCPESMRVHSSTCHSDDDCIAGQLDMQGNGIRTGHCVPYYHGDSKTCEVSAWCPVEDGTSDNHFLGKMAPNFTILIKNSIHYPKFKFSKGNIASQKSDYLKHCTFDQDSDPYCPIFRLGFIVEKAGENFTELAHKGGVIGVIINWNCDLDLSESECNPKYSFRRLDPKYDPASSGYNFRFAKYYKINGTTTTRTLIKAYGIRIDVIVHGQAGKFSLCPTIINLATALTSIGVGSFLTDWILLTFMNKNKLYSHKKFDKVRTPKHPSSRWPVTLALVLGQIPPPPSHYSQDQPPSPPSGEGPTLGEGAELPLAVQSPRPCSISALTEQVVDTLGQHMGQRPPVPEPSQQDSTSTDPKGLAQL
An excerpt: (§1) perforated-patch whole-cell voltage clamp, peak ATP-gated current, Hill fit on rP2X2R (rP2X2R-WT; rP2X2R-T for the C348T background)

The target in assay [2] is T2, rP2X2R (rP2X2R-WT; rP2X2R-T for the C348T background) (Rattus norvegicus, UniProt P49653, C348T/I328A).
T2 construct: gene P2rx2; full-length, C-terminal FLAG tag (DYKDDDDK), transiently expressed in HEK293 cells with EGFP; homotrimer; monomer about 62 kDa on SDS-PAGE; all point mutants made on the C348T (rP2X2R-T) background
T2 sequence (P49653 1-472 I328A/C348T): T1 sequence (P49653 1-472 V48C/I328C/C348T) with C48V, C328A
Text: as §1

The target in assay [3] is T3, rP2X2R (rP2X2R-WT; rP2X2R-T for the C348T background) (Rattus norvegicus, UniProt P49653, C348T/H33C/S345C).
T3 construct: gene P2rx2; full-length, C-terminal FLAG tag (DYKDDDDK), transiently expressed in HEK293 cells with EGFP; homotrimer; monomer about 62 kDa on SDS-PAGE; all point mutants made on the C348T (rP2X2R-T) background
T3 sequence (P49653 1-472 H33C/S345C/C348T): T1 sequence (P49653 1-472 V48C/I328C/C348T) with H33C, C48V, C328I, S345C
Text: as §1

Assay [4] has as its target T4, rP2X2R (rP2X2R-WT; rP2X2R-T for the C348T background) (Rattus norvegicus, UniProt P49653, C348T/H33C).
T4 construct: gene P2rx2; full-length, C-terminal FLAG tag (DYKDDDDK), transiently expressed in HEK293 cells with EGFP; homotrimer; monomer about 62 kDa on SDS-PAGE; all point mutants made on the C348T (rP2X2R-T) background
T4 sequence (P49653 1-472 H33C/C348T): T1 sequence (P49653 1-472 V48C/I328C/C348T) with H33C, C48V, C328I
Text: as §1

The target of assay [5] is T5, rP2X2R (rP2X2R-WT; rP2X2R-T for the C348T background) (Rattus norvegicus, UniProt P49653, C348T/H33A/S345A).
T5 construct: gene P2rx2; full-length, C-terminal FLAG tag (DYKDDDDK), transiently expressed in HEK293 cells with EGFP; homotrimer; monomer about 62 kDa on SDS-PAGE; all point mutants made on the C348T (rP2X2R-T) background
T5 sequence (P49653 1-472 H33A/S345A/C348T): T1 sequence (P49653 1-472 V48C/I328C/C348T) with H33A, C48V, C328I, S345A
Text: as §1

The target in assay [6] is T6, rP2X2R (rP2X2R-WT; rP2X2R-T for the C348T background) (Rattus norvegicus, UniProt P49653, C348T/S345C).
T6 construct: gene P2rx2; full-length, C-terminal FLAG tag (DYKDDDDK), transiently expressed in HEK293 cells with EGFP; homotrimer; monomer about 62 kDa on SDS-PAGE; all point mutants made on the C348T (rP2X2R-T) background
T6 sequence (P49653 1-472 S345C/C348T): T1 sequence (P49653 1-472 V48C/I328C/C348T) with C48V, C328I, S345C
Text: as §1

Assay [7] addresses T7, rP2X2R (rP2X2R-WT; rP2X2R-T for the C348T background) (Rattus norvegicus, UniProt P49653, C348T/H33A).
T7 construct: gene P2rx2; full-length, C-terminal FLAG tag (DYKDDDDK), transiently expressed in HEK293 cells with EGFP; homotrimer; monomer about 62 kDa on SDS-PAGE; all point mutants made on the C348T (rP2X2R-T) background
T7 sequence (P49653 1-472 H33A/C348T): T1 sequence (P49653 1-472 V48C/I328C/C348T) with H33A, C48V, C328I
Text: as §1

Assay [8] concerns the target T8, rP2X2R (rP2X2R-WT; rP2X2R-T for the C348T background) (Rattus norvegicus, UniProt P49653, C348T/F44C).
T8 construct: gene P2rx2; full-length, C-terminal FLAG tag (DYKDDDDK), transiently expressed in HEK293 cells with EGFP; homotrimer; monomer about 62 kDa on SDS-PAGE; all point mutants made on the C348T (rP2X2R-T) background
T8 sequence (P49653 1-472 F44C/C348T): T1 sequence (P49653 1-472 V48C/I328C/C348T) with F44C, C48V, C328I
Text: as §1

Assay [9] addresses T9, rP2X2R (rP2X2R-WT; rP2X2R-T for the C348T background) (Rattus norvegicus, UniProt P49653, C348T/S345A).
T9 construct: gene P2rx2; full-length, C-terminal FLAG tag (DYKDDDDK), transiently expressed in HEK293 cells with EGFP; homotrimer; monomer about 62 kDa on SDS-PAGE; all point mutants made on the C348T (rP2X2R-T) background
T9 sequence (P49653 1-472 S345A/C348T): T1 sequence (P49653 1-472 V48C/I328C/C348T) with C48V, C328I, S345A
Text: as §1

Regarding `Nc1ncnc2c1ncn2[C@@H]1O[C@H](COP(=O)(O)OP(=O)(O)OP(=O)(O)O)[C@@H](O)[C@H]1O` [ATP], the EC50 in [1] came out at 17.8 ± 2 µM; in assay [2], 0.4 ± 0.1 µM; in assay [3], 7.3 ± 1.1 µM; in assay [4] it was 2.3 ± 0.5 µM; in assay [5] it was 35.7 ± 0.5 µM; in assay [6] it was 6.3 ± 0.9 µM. For the same compound, the values for the EC50 in [7], in assay [8] and in assay [9] were 4.2 ± 0.6 µM, 0.81 ± 0.1 µM and 12.1 ± 0.7 µM, respectively.

The term EC50 denotes the concentration needed to bring the measured effect to its halfway point. Low readings indicate a more potent agent, high ones a less potent agent.
